Measurements: patent publication US20260356819A1, “OXOISOINDOLINYL-SUBSTITUTED […] DERIVATIVE AND USE THEREOF” (GLUETACS THERAPEUTICS (SHANGHAI) CO., LTD., priority 2023, published 2026)

What was measured:
Type in all cases: cell-based
Conditions in all cases: compounds at 50 nM and 500 nM
GSPT1 = molecular target: T1, GSPT1 (Homo sapiens, UniProt P15170+Q96SW2); experiment: Western blot degradation of GSPT1 in hPBMCs (24 h)
T1 construct: The supernatant was aspirated as the extracted total cell protein; endogenous in cells; host or cells: human peripheral blood mononuclear cells (hPBMCs)
Method in brief: (§1)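 PBMC Western blot, 24 h treatment; test levels 50 nM and 500 nM. Band density ÷ internal control, normalised → % remaining; degradation (%) = 1 − remaining.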

IKZF2 = molecular target: T2, IKZF2 (Homo sapiens, UniProt Q96SW2+Q9UKS7); experiment: Western blot degradation of IKZF2 in hPBMCs (24 h)
T2 construct: The supernatant was aspirated as the extracted total cell protein; endogenous in cells; host or cells: human peripheral blood mononuclear cells (hPBMCs)
Method in brief: as §1

CK1α = molecular target: T3, CK1α (Homo sapiens, UniProt P48729+Q96SW2); experiment: Western blot degradation of CK1α in hPBMCs (24 h)
T3 construct: The supernatant was aspirated as the extracted total cell protein; endogenous in cells; host or cells: human peripheral blood mononuclear cells (hPBMCs)
Method in brief: as §1

IKZF3 = molecular target: T4, IKZF3 (Homo sapiens, UniProt Q96SW2+Q9UKT9); experiment: Western blot degradation of IKZF3 in hPBMCs (24 h)
T4 construct: The supernatant was aspirated as the extracted total cell protein; endogenous in cells; host or cells: human peripheral blood mononuclear cells (hPBMCs)
Method in brief: as §1

WEE1 = molecular target: T5, WEE1 (Homo sapiens, UniProt P30291+Q96SW2); experiment: Western blot degradation of WEE1 in hPBMCs (24 h)
T5 construct: The supernatant was aspirated as the extracted total cell protein; endogenous in cells; host or cells: human peripheral blood mononuclear cells (hPBMCs)
Method in brief: as §1

IKZF1 = molecular target: T6, IKZF1 (Homo sapiens, UniProt Q13422+Q96SW2); experiment: Western blot degradation of IKZF1 in hPBMCs (24 h)
T6 construct: The supernatant was aspirated as the extracted total cell protein; endogenous in cells; host or cells: human peripheral blood mononuclear cells (hPBMCs)
Method in brief: as §1

T2 sequence (Q9UKS7 whole entry): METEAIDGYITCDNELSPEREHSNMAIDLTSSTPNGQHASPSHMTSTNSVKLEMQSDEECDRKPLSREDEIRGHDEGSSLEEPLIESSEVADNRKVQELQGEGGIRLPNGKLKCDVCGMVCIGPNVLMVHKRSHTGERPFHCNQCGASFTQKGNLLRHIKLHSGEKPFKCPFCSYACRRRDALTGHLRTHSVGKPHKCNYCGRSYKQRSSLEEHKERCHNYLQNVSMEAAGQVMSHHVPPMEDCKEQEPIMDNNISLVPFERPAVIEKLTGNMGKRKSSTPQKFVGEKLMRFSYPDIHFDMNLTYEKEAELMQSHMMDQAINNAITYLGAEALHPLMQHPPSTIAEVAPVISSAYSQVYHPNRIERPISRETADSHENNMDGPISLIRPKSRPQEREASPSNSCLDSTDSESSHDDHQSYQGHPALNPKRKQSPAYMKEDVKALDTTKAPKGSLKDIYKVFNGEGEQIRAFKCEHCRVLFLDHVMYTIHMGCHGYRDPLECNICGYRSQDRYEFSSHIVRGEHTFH
T2 sequence (Q96SW2 whole entry): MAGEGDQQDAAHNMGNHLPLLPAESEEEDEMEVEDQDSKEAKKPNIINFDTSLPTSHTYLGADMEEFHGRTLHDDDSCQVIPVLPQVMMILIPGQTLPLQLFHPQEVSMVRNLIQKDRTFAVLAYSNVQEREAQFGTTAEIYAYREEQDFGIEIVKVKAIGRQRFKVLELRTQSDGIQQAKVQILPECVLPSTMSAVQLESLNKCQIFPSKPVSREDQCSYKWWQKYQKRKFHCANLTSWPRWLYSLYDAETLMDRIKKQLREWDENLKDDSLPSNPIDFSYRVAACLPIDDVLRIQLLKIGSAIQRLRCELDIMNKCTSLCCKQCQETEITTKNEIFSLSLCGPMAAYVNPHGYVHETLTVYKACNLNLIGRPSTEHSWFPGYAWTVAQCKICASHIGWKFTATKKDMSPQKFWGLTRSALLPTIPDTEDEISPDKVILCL
T2 sequence (Q16531 whole entry partner): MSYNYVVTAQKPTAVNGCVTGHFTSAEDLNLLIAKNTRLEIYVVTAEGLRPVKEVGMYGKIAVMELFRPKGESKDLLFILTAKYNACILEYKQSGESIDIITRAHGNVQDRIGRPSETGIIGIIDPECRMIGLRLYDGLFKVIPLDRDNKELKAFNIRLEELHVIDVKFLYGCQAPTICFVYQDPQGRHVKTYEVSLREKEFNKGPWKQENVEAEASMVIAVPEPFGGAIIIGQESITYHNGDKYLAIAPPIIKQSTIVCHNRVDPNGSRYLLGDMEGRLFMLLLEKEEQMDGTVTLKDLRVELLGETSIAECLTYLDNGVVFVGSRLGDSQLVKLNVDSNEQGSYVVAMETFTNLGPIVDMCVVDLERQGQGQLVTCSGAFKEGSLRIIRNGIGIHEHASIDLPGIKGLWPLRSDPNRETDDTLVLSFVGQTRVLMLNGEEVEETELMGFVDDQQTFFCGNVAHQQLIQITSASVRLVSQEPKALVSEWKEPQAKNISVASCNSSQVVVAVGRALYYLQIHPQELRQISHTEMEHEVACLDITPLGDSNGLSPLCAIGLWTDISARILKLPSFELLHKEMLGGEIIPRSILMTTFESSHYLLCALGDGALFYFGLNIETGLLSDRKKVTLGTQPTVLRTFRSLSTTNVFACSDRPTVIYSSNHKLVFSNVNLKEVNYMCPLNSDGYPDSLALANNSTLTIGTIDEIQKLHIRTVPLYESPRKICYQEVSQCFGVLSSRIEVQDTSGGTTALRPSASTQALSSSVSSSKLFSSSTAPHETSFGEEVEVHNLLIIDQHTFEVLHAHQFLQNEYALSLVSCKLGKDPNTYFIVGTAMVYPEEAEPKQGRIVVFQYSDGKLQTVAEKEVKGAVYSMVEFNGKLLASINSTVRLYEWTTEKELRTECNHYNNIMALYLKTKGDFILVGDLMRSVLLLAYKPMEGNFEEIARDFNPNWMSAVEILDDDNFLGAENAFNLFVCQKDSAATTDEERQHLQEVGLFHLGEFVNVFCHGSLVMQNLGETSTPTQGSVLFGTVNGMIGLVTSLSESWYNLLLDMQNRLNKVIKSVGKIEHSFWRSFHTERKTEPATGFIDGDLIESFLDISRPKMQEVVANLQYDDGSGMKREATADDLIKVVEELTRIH
T4 sequence (Q9UKT9 whole entry): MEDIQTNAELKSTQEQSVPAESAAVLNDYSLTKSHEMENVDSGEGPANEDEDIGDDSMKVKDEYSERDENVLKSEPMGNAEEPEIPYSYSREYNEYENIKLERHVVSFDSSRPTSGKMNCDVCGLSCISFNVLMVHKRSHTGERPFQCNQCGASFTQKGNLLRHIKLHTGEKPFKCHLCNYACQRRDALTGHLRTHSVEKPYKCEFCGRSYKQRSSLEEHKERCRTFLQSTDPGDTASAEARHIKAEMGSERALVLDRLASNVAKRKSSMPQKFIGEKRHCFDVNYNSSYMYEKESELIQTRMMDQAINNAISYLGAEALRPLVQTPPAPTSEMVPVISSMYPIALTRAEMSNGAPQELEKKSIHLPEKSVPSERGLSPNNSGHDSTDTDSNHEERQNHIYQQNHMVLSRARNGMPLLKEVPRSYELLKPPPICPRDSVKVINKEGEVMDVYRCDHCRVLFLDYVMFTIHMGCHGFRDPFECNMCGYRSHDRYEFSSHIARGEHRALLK
T4 sequence (Q96SW2 whole entry): as the sequence (Q96SW2 whole entry) above
T4 sequence (Q16531 whole entry partner): as the sequence (Q16531 whole entry partner) above
T3 sequence (P48729 whole entry): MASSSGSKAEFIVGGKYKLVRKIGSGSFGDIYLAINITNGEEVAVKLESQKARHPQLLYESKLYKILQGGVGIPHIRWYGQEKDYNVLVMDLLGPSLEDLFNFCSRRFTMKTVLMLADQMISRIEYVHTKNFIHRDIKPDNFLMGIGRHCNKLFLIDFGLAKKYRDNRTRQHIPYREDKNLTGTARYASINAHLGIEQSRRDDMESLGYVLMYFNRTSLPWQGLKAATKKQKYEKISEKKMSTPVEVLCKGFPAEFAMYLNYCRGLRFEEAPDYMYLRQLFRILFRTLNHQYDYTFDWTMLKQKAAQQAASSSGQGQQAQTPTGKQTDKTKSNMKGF
T3 sequence (Q96SW2 whole entry): as the sequence (Q96SW2 whole entry) above
T3 sequence (Q16531 whole entry partner): as the sequence (Q16531 whole entry partner) above
T6 sequence (Q13422 whole entry): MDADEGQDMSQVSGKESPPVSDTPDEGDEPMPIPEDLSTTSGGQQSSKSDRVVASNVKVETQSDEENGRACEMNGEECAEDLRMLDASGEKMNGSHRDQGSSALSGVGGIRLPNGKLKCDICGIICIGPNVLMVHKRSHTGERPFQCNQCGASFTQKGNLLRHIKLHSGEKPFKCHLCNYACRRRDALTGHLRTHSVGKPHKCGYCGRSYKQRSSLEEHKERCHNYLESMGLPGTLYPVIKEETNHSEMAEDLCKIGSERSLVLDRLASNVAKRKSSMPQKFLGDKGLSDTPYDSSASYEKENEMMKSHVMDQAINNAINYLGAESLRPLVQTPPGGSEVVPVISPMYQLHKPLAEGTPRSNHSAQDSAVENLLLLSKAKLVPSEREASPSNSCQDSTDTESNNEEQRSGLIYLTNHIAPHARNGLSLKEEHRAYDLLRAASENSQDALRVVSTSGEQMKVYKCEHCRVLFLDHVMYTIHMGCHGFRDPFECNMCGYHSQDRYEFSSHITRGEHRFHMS
T6 sequence (Q96SW2 whole entry): as the sequence (Q96SW2 whole entry) above
T6 sequence (Q16531 whole entry partner): as the sequence (Q16531 whole entry partner) above
T5 sequence (P30291 whole entry): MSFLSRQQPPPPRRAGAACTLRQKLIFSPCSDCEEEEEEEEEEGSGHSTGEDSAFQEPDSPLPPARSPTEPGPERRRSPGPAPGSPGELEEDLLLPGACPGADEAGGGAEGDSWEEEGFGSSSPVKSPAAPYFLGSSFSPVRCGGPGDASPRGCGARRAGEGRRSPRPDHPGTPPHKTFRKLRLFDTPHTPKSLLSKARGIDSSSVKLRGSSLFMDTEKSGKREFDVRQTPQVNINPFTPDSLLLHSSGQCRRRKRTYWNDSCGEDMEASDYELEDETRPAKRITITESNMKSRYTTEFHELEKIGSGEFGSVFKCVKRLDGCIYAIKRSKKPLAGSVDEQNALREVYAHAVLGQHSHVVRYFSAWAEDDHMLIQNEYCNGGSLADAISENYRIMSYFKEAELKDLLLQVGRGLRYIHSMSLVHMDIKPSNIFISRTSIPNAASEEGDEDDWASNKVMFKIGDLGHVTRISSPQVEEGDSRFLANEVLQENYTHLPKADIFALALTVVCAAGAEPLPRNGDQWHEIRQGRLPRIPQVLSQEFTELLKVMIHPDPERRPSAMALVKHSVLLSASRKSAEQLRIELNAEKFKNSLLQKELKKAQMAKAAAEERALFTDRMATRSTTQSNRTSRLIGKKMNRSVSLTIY
T5 sequence (Q96SW2 whole entry): as the sequence (Q96SW2 whole entry) above
T5 sequence (Q16531 whole entry partner): as the sequence (Q16531 whole entry partner) above

Row | SMILES | GSPT1 substrate protein remaining % (GSPT1) | IKZF2 substrate protein remaining % (IKZF2) | CK1α substrate protein remaining % (CK1α) | IKZF3 substrate protein remaining % (IKZF3) | WEE1 substrate protein remaining % (WEE1) | IKZF1 substrate protein remaining % (IKZF1)
1 | O=C1CCN(N2C(=O)c3ccc(CN4CCN(c5ccccc5Cl)CC4)cc3C2=O)C(=O)N1 [GT-06726, 5-((4-(2-chlorophenyl)piperazin-1-yl)methyl)-2-(2,4-dioxotetrahydropyrimidin-1(2H)-yl)isoindoline-1,3-dione] | B (80%< substrate protein remaining % ≤100%) | A (0% ≤ substrate protein remaining % ≤80%) | A (0% ≤ substrate protein remaining % ≤80%) | A (0% ≤ substrate protein remaining % ≤80%) | A (0% ≤ substrate protein remaining % ≤80%) | B (80%< substrate protein remaining % ≤100%)
2 | O=C1CCN(N2C(=O)c3ccc(CN4CCN(c5ccccc5Br)CC4)cc3C2=O)C(=O)N1 [GT-06727, 5-((4-(2-bromophenyl)piperazin-1-yl)methyl)-2-(2,4-dioxotetrahydropyrimidin-1(2H)-yl)isoindoline-1,3-dione] | B (80%< substrate protein remaining % ≤100%) | A (0% ≤ substrate protein remaining % ≤80%) | A (0% ≤ substrate protein remaining % ≤80%) | A (0% ≤ substrate protein remaining % ≤80%) | B (80%< substrate protein remaining % ≤100%) | B (80%< substrate protein remaining % ≤100%)
3 | COc1ccc(N2CCN(Cc3ccc4c(c3)C(=O)N(N3CCC(=O)NC3=O)C4=O)CC2)cc1 [GT-06728, 2-(2,4-dioxotetrahydropyrimidin-1(2H)-yl)-5-((4-(4-methoxyphenyl)piperazin-1-yl)methyl)isoindoline-1,3-dione] | B (80%< substrate protein remaining % ≤100%) | A (0% ≤ substrate protein remaining % ≤80%) | A (0% ≤ substrate protein remaining % ≤80%) | A (0% ≤ substrate protein remaining % ≤80%) | B (80%< substrate protein remaining % ≤100%) | B (80%< substrate protein remaining % ≤100%)
4 | COc1ccc(N2CCN(Cc3ccc4c(c3)CN(N3CCC(=O)NC3=O)C4=O)CC2)cc1 [GT-06767, 1-(5-((4-(4-methoxyphenyl)piperazin-1-yl)methyl)-1-oxoisoindolin-2-yl)dihydropyrimidine-2,4(1H,3H)-dione] | A (0% ≤ substrate protein remaining % ≤80%) | A (0% ≤ substrate protein remaining % ≤80%) | A (0% ≤ substrate protein remaining % ≤80%) | A (0% ≤ substrate protein remaining % ≤80%) | A (0% ≤ substrate protein remaining % ≤80%) | A (0% ≤ substrate protein remaining % ≤80%)
5 | O=C1CCN(N2Cc3cc(CN4CCN(c5ccc(Br)cc5)CC4)ccc3C2=O)C(=O)N1 [GT-06768, 1-(5-((4-(4-bromophenyl)piperazin-1-yl)methyl)-1-oxoisoindolin-2-yl)dihydropyrimidine-2,4(1H,3H)-dione] | A (0% ≤ substrate protein remaining % ≤80%) | B (80%< substrate protein remaining % ≤100%) | A (0% ≤ substrate protein remaining % ≤80%) | A (0% ≤ substrate protein remaining % ≤80%) | A (0% ≤ substrate protein remaining % ≤80%) | B (80%< substrate protein remaining % ≤100%)
6 | Cc1ccccc1N1CCN(Cc2ccc3c(c2)CN(N2CCC(=O)NC2=O)C3=O)CC1 [GT-06769, 1-(1-oxo-5-((4-(o-tolyl)piperazin-1-yl)methyl)isoindolin-2-yl)dihydropyrimidine-2,4(1H,3H)-dione] | A (0% ≤ substrate protein remaining % ≤80%) | A (0% ≤ substrate protein remaining % ≤80%) | A (0% ≤ substrate protein remaining % ≤80%) | A (0% ≤ substrate protein remaining % ≤80%) | A (0% ≤ substrate protein remaining % ≤80%) | B (80%< substrate protein remaining % ≤100%)
7 | Cc1ccc(N2CCN(Cc3ccc4c(c3)CN(N3CCC(=O)NC3=O)C4=O)CC2)cc1 [GT-06771, 1-(1-oxo-5-((4-(p-tolyl)piperazin-1-yl)methyl)isoindolin-2-yl)dihydropyrimidine-2,4(1H,3H)-dione] | A (0% ≤ substrate protein remaining % ≤80%) | A (0% ≤ substrate protein remaining % ≤80%) | A (0% ≤ substrate protein remaining % ≤80%) | A (0% ≤ substrate protein remaining % ≤80%) | A (0% ≤ substrate protein remaining % ≤80%) | B (80%< substrate protein remaining % ≤100%)
8 | O=C1CCN(N2Cc3cc(CN4CCN(c5ccc(Cl)cc5Cl)CC4)ccc3C2=O)C(=O)N1 [GT-06772, 1-(5-((4-(2,4-dichlorophenyl)piperazin-1-yl)methyl)-1-oxoisoindolin-2-yl)dihydropyrimidine-2,4(1H,3H)-dione] | A (0% ≤ substrate protein remaining % ≤80%) | A (0% ≤ substrate protein remaining % ≤80%) | A (0% ≤ substrate protein remaining % ≤80%) | A (0% ≤ substrate protein remaining % ≤80%) | A (0% ≤ substrate protein remaining % ≤80%) | B (80%< substrate protein remaining % ≤100%)
9 | O=C1CCN(N2Cc3cc(CN4CCN(c5c(Cl)cccc5Cl)CC4)ccc3C2=O)C(=O)N1 [GT-06774, 1-(5-((4-(2,6-dichlorophenyl)piperazin-1-yl)methyl)-1-oxoisoindolin-2-yl)dihydropyrimidine-2,4(1H,3H)-dione] | A (0% ≤ substrate protein remaining % ≤80%) | A (0% ≤ substrate protein remaining % ≤80%) | A (0% ≤ substrate protein remaining % ≤80%) | A (0% ≤ substrate protein remaining % ≤80%) | B (80%< substrate protein remaining % ≤100%) | B (80%< substrate protein remaining % ≤100%)
10 | O=C1CCN(N2Cc3cc(CN4CCN(c5ccc(Cl)c(Cl)c5)CC4)ccc3C2=O)C(=O)N1 [GT-06775, 1-(5-((4-(3,4-dichlorophenyl)piperazin-1-yl)methyl)-1-oxoisoindolin-2-yl)dihydropyrimidine-2,4(1H,3H)-dione] | A (0% ≤ substrate protein remaining % ≤80%) | A (0% ≤ substrate protein remaining % ≤80%) | A (0% ≤ substrate protein remaining % ≤80%) | A (0% ≤ substrate protein remaining % ≤80%) | B (80%< substrate protein remaining % ≤100%) | B (80%< substrate protein remaining % ≤100%)
11 | O=C1CCN(N2Cc3cc(CN4CCN(c5ccc(F)cc5F)CC4)ccc3C2=O)C(=O)N1 [GT-06778, 1-(5-((4-(2,4-difluorophenyl)piperazin-1-yl)methyl)-1-oxoisoindolin-2-yl)dihydropyrimidine-2,4(1H,3H)-dione] | A (0% ≤ substrate protein remaining % ≤80%) | B (80%< substrate protein remaining % ≤100%) | A (0% ≤ substrate protein remaining % ≤80%) | B (80%< substrate protein remaining % ≤100%) | B (80%< substrate protein remaining % ≤100%) | B (80%< substrate protein remaining % ≤100%)
12 | O=C1CCN(N2Cc3cc(CN4CCN(c5cc(F)ccc5F)CC4)ccc3C2=O)C(=O)N1 [GT-06779, 1-(5-((4-(2,5-difluorophenyl)piperazin-1-yl)methyl)-1-oxoisoindolin-2-yl)dihydropyrimidine-2,4(1H,3H)-dione] | B (80%< substrate protein remaining % ≤100%) | B (80%< substrate protein remaining % ≤100%) | A (0% ≤ substrate protein remaining % ≤80%) | B (80%< substrate protein remaining % ≤100%) | B (80%< substrate protein remaining % ≤100%) | B (80%< substrate protein remaining % ≤100%)
13 | O=C1CCN(N2Cc3cc(CN4CCN(c5c(F)cccc5F)CC4)ccc3C2=O)C(=O)N1 [GT-06780, 1-(5-((4-(2,6-difluorophenyl)piperazin-1-yl)methyl)-1-oxoisoindolin-2-yl)dihydropyrimidine-2,4(1H,3H)-dione] | B (80%< substrate protein remaining % ≤100%) | B (80%< substrate protein remaining % ≤100%) | A (0% ≤ substrate protein remaining % ≤80%) | B (80%< substrate protein remaining % ≤100%) | B (80%< substrate protein remaining % ≤100%) | B (80%< substrate protein remaining % ≤100%)
